Assay results from ChEMBL document CHEMBL5518196, “Discovery of potent thiazolidin-4-one sulfone derivatives for inhibition of proliferation of osteosarcoma in vitro and in vivo” (Eur J Med Chem, 2024).

Test system: HOS-TE85
Assay: Antiproliferative activity against human MNNG/HOS cells assessed as inhibition of cell growth incubated for 72 hrs by CCK8 assay
Assay type: functional, cell-based
Conditions: HOS-TE85, 72 h

Row | SMILES | IC50
1 | O=C(NCCCCn1cccn1)c1cccc(C2N(c3ccccn3)C(=O)CS2(=O)=O)n1 (configuration not stated) | 979 nM
2 | Cc1cccc(N2C(=O)CS(=O)(=O)C2c2cccc(C(=O)NCCCCc3ccccc3)c2)c1 (configuration not stated) | 230 nM
3 | COCCCCNC(=O)c1cccc(C2N(c3ccc(C)cn3)C(=O)CS2(=O)=O)n1 (configuration not stated) | 262 nM
4 | O=C(NCCCCc1ccccc1)c1cccc(C2N(c3ncccc3F)C(=O)CS2(=O)=O)n1 (configuration not stated) | 25 nM
5 | O=C(NCCCCO)c1cccc(C2N(c3ccccn3)C(=O)CS2(=O)=O)n1 (configuration not stated) | > 1000 nM
6 | COCCCCNC(=O)c1cccc([C@@H]2N(c3ccc(F)cn3)C(=O)CS2(=O)=O)n1 | 272 nM
7 | O=C(NCCCCc1ccccc1)c1cccc(C2N(c3ccccc3)C(=O)CS2(=O)=O)c1 (configuration not stated) | 150 nM
8 | O=C(NCCCCc1ccccc1)c1cccc(C2N(Cc3ccccc3)C(=O)C[S+]2[O-])c1 (configuration not stated) | > 10000 nM
9 | O=C(CCCNC(=O)c1cccc(C2N(c3ccccn3)C(=O)CS2(=O)=O)n1)Nc1ccccc1 (configuration not stated) | > 1000 nM
10 | Cc1cc(N2C(=O)C[S+]([O-])C2c2cccc(C(=O)NCCCCc3ccccc3)c2)no1 (configuration not stated) | 354 nM
11 | O=C(NCCCCc1ccccc1)c1cccc(C2N(C3CCOCC3)C(=O)CS2(=O)=O)c1 (configuration not stated) | > 10000 nM
12 | CN(CCCCc1ccccc1)C(=O)c1cccc(C2N(c3ccccc3)C(=O)CS2(=O)=O)c1 (configuration not stated) | > 10000 nM
13 | O=C(NCCCCc1ccccc1)c1cccc(C2N(c3cccc(F)c3)C(=O)C[S+]2[O-])c1 (configuration not stated) | 83 nM
14 | O=C(NCCCCc1ccccc1)c1cccc(C2N(c3ncccc3O)C(=O)CS2(=O)=O)n1 (configuration not stated) | 45 nM
15 | C#Cc1cc(C(=O)NCCCCc2ccccc2)cc(C2N(c3ccccc3)C(=O)CS2(=O)=O)c1 (configuration not stated) | 9 nM
16 | O=C(O)c1cc(C(=O)NCCCCc2ccccc2)cc(C2N(c3ccccc3)C(=O)CS2(=O)=O)c1 (configuration not stated) | > 10000 nM
17 | O=C(NCCCCc1ccccc1)c1cccc(C2N(c3ccc[n+]([O-])c3)C(=O)CS2(=O)=O)c1 (configuration not stated) | > 10000 nM
18 | COCCCNC(=O)c1cccc(C2N(c3ccccn3)C(=O)CS2(=O)=O)n1 (configuration not stated) | 926 nM
19 | Cc1cccc(N2C(=O)CS(=O)(=O)C2c2cccc(C(=O)NCCCCc3ccccc3)n2)n1 (configuration not stated) | 775 nM

Row | SMILES | IC50
20 | COCCCCNC(=O)c1cccc(C2N(c3ccccn3)C(=O)C[S+]2[O-])n1 (configuration not stated) | > 1000 nM
21 | O=C(NCCCCc1ccccc1)c1cccc(C2N(c3cccc(F)n3)C(=O)CS2(=O)=O)n1 (configuration not stated) | > 1000 nM
22 | O=C(CCCNC(=O)c1cccc(C2N(c3ccccn3)C(=O)CS2(=O)=O)n1)c1ccccc1 (configuration not stated) | 203 nM
23 | O=C(NCCCCc1ccccc1)c1cccc(C2N(C3CC3)C(=O)CS2(=O)=O)c1 (configuration not stated) | > 10000 nM
24 | Cc1cccnc1N1C(=O)CS(=O)(=O)C1c1cccc(C(=O)NCCCCc2ccccc2)n1 (configuration not stated) | 50 nM
25 | Cc1ccnc(N2C(=O)CS(=O)(=O)C2c2cccc(C(=O)NCCCCc3ccccc3)c2)c1 (configuration not stated) | 71 nM
26 | COC(=O)c1cc(C(=O)NCCCCc2ccccc2)cc(C2N(c3ccccc3)C(=O)CS2(=O)=O)c1 (configuration not stated) | 60 nM
27 | O=C(NCCCC(=O)N1CCCC1)c1cccc(C2N(c3ccccn3)C(=O)CS2(=O)=O)n1 (configuration not stated) | > 1000 nM
28 | O=C(NCCCCc1ccccc1)c1cccc(C2N(c3ccccc3)C(=O)C[S+]2[O-])c1 (configuration not stated) | 3110 nM
29 | CCCCNC(=O)c1cccc(C2N(c3ccccc3)C(=O)CS2(=O)=O)c1 (configuration not stated) | > 10000 nM
30 | O=C(CCCCc1ccccc1)Nc1cccc(C2N(c3ccccc3)C(=O)CS2(=O)=O)c1 (configuration not stated) | 508 nM
31 | O=C(NCCCCc1ccccc1)c1cccc(C2N(c3cccc(Cl)c3)C(=O)CS2(=O)=O)c1 (configuration not stated) | 75 nM
32 | O=C(NCCCCc1ccccc1)c1cccc(C2N(Cc3ccccc3)C(=O)CS2(=O)=O)c1 (configuration not stated) | > 10000 nM
33 | COc1cccc(N2C(=O)CS(=O)(=O)C2N(CCCCc2ccccc2)C(=O)c2ccccc2)c1 (configuration not stated) | 68 nM
34 | COC(=O)CCNC(=O)c1cccc(C2N(c3ccccn3)C(=O)CS2(=O)=O)n1 (configuration not stated) | > 1000 nM
35 | COc1ccccc1N1C(=O)CS(=O)(=O)C1c1cccc(C(=O)NCCCCc2ccccc2)c1 (configuration not stated) | 31 nM
36 | O=C(NCCCCc1ccccc1)c1cccc(C2N(c3cc(Cl)ccn3)C(=O)CS2(=O)=O)n1 (configuration not stated) | 469 nM
37 | O=C(NCCCCc1ccccc1)c1cccc(C2N(CCc3ccccc3)C(=O)CS2(=O)=O)c1 (configuration not stated) | > 10000 nM
